The values below come from PMC5702381 (Advances in Therapy, 2017).

The format of data set [1] is in vivo, human. The conditions noted are these: for CL/F: arithmetic mean ± SD.
For data set [2] the following is noted: for AUCinf / C max: geometric mean ± SD; for CL/F: arithmetic mean ± SD; for t max: median (range).
A short description of data set [3]: Safety assessments. It is filed as in vivo, human.
The subject of data set [4] is CYP3A4. As to conditions: in vitro; ref unpublished data; cited from earlier work.
The conditions of data set [5]: healthy volunteers; cited from earlier work.
For data set [6] the following is noted: healthy volunteers; cited from earlier work. This is another data set of the same source.
The format of data set [7] is in vivo, human. As to conditions: for CL/F: arithmetic mean ± SD. This is another data set of the same source.
In data set [8] the test system is CYP2C9. As to conditions: in vitro; ref unpublished data; cited from earlier work.
Data set [9] is classed as in vivo, human. The conditions noted are these: for CL/F: arithmetic mean ± SD. The source holds these as a separate data set.
For data set [10], the system named is CYP2C19. As to conditions: in vitro; ref unpublished data; cited from earlier work.
Data set [11] relates to CYP2B6. As to conditions: cited from earlier work.
Data set [12] relates to CYP2C19. The conditions noted are these: cited from earlier work.
Data set [13] concerns prothrombin time (PT). Description: Study 15L-CL-018: warfarin pharmacodynamics. It is filed as in vivo, human. The conditions noted are these: for AUCPT;0–168 h: geometric mean ± SD.
[14] abbreviates: warfarin 25 mg + amenamevir 200 mg once daily, n = 18.
The mark [15] stands for this setting: warfarin 25 mg + amenamevir 400 mg once daily, n = 15.
Where [16] appears, read: warfarin 25 mg alone, amenamevir 400 mg group, n = 17.
Where [17] appears, read: warfarin + amenamevir 200 mg once daily.
The mark [18] stands for this setting: warfarin + amenamevir 400 mg once daily.
The mark [19] stands for this setting: warfarin alone, amenamevir 200 mg group.
Setting [20] is: warfarin alone, amenamevir 400 mg group.
Setting [21] is: with ketoconazole coadministration vs amenamevir alone.
[22] abbreviates: in the presence of rifampicin vs amenamevir alone.

Structures are written as SMILES. Read-outs that look alike come from different tables or passages of the source.

For orientation: CL/F means clearance divided by bioavailability, as obtained after extravascular dosing. Turning to `Cc1ncc2n1-c1ccc(Cl)cc1C(c1ccccc1F)=NC2` [Midazolam, midazolam], the “pharmacokinetic interaction with amenamevir (90% CI of LS GMR vs 0.80–1.25)” value in data set [1] (amenamevir 400 mg once daily, based on C max and AUCinf) was “significant interaction”; in [1] (amenamevir 200-mg dose, based on AUCinf), “significant interaction”. The t max in data set [1] (human, plasma, oral, 200 mg) is 1.5 h; in data set [1] (human, plasma, oral, 400 mg), 1.5 h; in data set [1] (midazolam + amenamevir 400 mg once daily, median (range)) it was 1.0 (0.5–4.0) h. The CL/F was determined as 109.0 ± 43.4 L/h in [1] (midazolam + amenamevir 200 mg once daily); 143.8 ± 68.0 L/h in data set [1] (midazolam + amenamevir 400 mg once daily); 80.1 ± 37.0 L/h in data set [1] (midazolam alone, amenamevir 200 mg group); 78.2 ± 39.2 L/h in data set [1] (midazolam alone, amenamevir 400 mg group).

Consider `CC(=O)C[C@H](c1ccccc1)c1c(O)c2ccccc2oc1=O` [(R)-Warfarin, (R)-warfarin], for which the AUCinf in [2] (setting [14]) is recorded as 67,092 ± 18,315 ng h/mL; in data set [2] (setting [15]), 68,723 ± 12,736 ng h/mL; in data set [2] (setting [16]), 75,652 ± 18,160 ng h/mL. Further, the CL/F in data set [2] (setting [17]) was found to be 0.18 ± 0.04 L/h; in [2] (setting [18]), 0.17 ± 0.03 L/h; in [2] (setting [19]), 0.17 ± 0.04 L/h; in data set [2] (setting [20]), 0.16 ± 0.04 L/h. Also, the C max came to 1240 ± 134 ng/mL in data set [2] (setting [17]), 1262 ± 232 ng/mL in [2] (setting [18]), 1197 ± 133 ng/mL in [2] (setting [19]) and 1187 ± 149 ng/mL in data set [2] (setting [20]). Also, the t max is given as 4.0 (1.0–12.0) h in data set [2] (setting [17]), 4.0 (2.0–12.0) h in [2] (setting [18]), 4.0 (2.0–4.0) h in [2] (setting [19]) and 4.0 (2.0–12.0) h in data set [2] (setting [20]).

Regarding `CC(=O)N1CCN(c2ccc(OCC3COC(Cn4ccnc4)(c4ccc(Cl)cc4Cl)O3)cc2)CC1` (centres unmarked) [ketoconazole], the “participants reporting headache (TEAE)” value in data set [3] (study 15L-CL-008, during the treatment named, n = 22) is 18.2%.

By Cmax is commonly meant the highest concentration seen after dosing. One may read the half-life as the time in which the quantity being followed falls by half. Turning to `Cc1cccc(C)c1N(CC(=O)Nc1ccc(-c2ncon2)cc1)C(=O)C1CCS(=O)(=O)CC1` [Amenamevir, amenamevir], the results for the “induction of enzyme activity” value in data set [4], in [8] and in data set [10] were “potentially induces”, “potentially induces” and “weak potential for inducing”, respectively. Also, the “urinary excretion as unchanged drug” value in [5] is on record as “approximately 10%”. In data set [3] (across all four studies), the “deaths, serious adverse events” value is “no deaths or serious adverse events reported”. Also, the safety and tolerability result in [3] (across all four studies, healthy male adults) was “safe and generally well tolerated”. The “participants reporting TEAEs” value in data set [3] (study 15L-CL-010, group that received the 200-mg dose of amenamevir (with single doses of midazolam 7.5 mg)) was found to be 9.1%; in data set [3] (study 15L-CL-010, group that received the 400-mg dose of amenamevir (with single doses of midazolam 7.5 mg)), 9.1%. The “TEAEs considered to be related to the study drug” value is “myalgia” in data set [3] (study 15L-CL-018, 200-mg amenamevir dose); “back pain, abdominal pain, and dyspepsia” in [3] (study 15L-CL-018, 400-mg amenamevir dose). The “change of AUCinf when administered with food” value in [6] is recorded as “almost doubling”. The CL/F in [7] (amenamevir 400 mg + ketoconazole 400 mg once daily) is on record as 8.0 ± 2.1 L/h; in data set [7] (amenamevir 400 mg alone), 20.8 ± 5.9 L/h; in data set [9] (amenamevir 400 mg + rifampicin 600 mg once daily) it was 133.5 ± 40.0 L/h; in [9] (amenamevir 400 mg alone), 22.1 ± 5.9 L/h. Also, the “pharmacokinetic interaction with ketoconazole (90% CI of LS GMR vs 0.80–1.25)” value in [7] (based on AUCinf) was “significant interaction”. In addition, the Cmax in [7] (human, plasma, oral, 400 mg) came to 1450 ± 329 ng/mL; in data set [9] (human, plasma, oral, 400 mg) it was 1320 ± 282 ng/mL. In addition, the half-life is 8.1 ± 1.9 h in data set [7] (human, plasma, oral, 400 mg) and 8 ± 1.2 h in data set [9] (human, plasma, oral, 400 mg). For the same compound, the t max was found to be 4 h in data set [7] (human, plasma, oral, 400 mg) and 3 h in [9] (human, plasma, oral, 400 mg). Besides, in data set [7] (setting [21]), the “decrease of CL/F” value was found to be 2.6 fold. Besides, the “increase of mean t ½” value in data set [7] (setting [21]) turned out to be 2.2 fold. Further, the “pharmacokinetic interaction with rifampicin (90% CI of LS GMR vs 0.80–1.25)” value in data set [9] (based on C max and AUCinf) is on record as “significant interaction”. Besides, in data set [9] (setting [22]), the “decrease of mean t ½” value was found to be 2.7 fold. Further, the “increase of mean CL/F” value in [9] (setting [22]) is recorded as “sixfold”. The “correlation of metabolism with marker-enzyme activity” value in [11] and in [12] was “significantly correlated” in each case.

`CC(=O)C[C@@H](c1ccccc1)c1c(O)c2ccccc2oc1=O` [(S)-Warfarin, (S)-warfarin]: the AUCinf is reported as 46,725 ± 18,437 ng h/mL in data set [2] (setting [14]), 45,032 ± 23,503 ng h/mL in data set [2] (setting [15]) and 50,329 ± 24,609 ng h/mL in data set [2] (setting [16]). Besides, the CL/F in data set [2] (setting [17]) is 0.26 ± 0.07 L/h; in data set [2] (setting [18]) it was 0.27 ± 0.08 L/h; in [2] (setting [19]) it was 0.25 ± 0.07 L/h; in [2] (setting [20]) it was 0.25 ± 0.08 L/h. In addition, the C max in [2] (setting [17]) is on record as 1217 ± 134 ng/mL; in data set [2] (setting [18]), 1251 ± 237 ng/mL; in data set [2] (setting [19]), 1194 ± 132 ng/mL; in data set [2] (setting [20]), 1168 ± 162 ng/mL. Besides, the t max was 4.0 (1.0–4.0) h in data set [2] (setting [17]), 2.0 (1.0–4.0) h in data set [2] (setting [18]), 4.0 (2.0–4.0) h in data set [2] (setting [19]) and 4.0 (1.0–4.0) h in [2] (setting [20]).

As to `CC(=O)CC(c1ccccc1)c1c(O)c2ccccc2oc1=O` (centres unmarked) [Warfarin, warfarin], in data set [3] (study 15L-CL-018, warfarin 25 mg alone), the “TEAEs considered to be related to the study drug” value was “nausea and dyspepsia”. Further, the “AUCPT;0–168 h” value is 2411 ± 199 s h in data set [13] (warfarin + amenamevir 200 mg once daily, n = 18); 2425 ± 163 s h in data set [13] (warfarin + amenamevir 400 mg once daily, n = 15); 2556 ± 254 s h in data set [13] (warfarin alone, amenamevir 400 mg group, n = 17). In data set [13] (warfarin alone, amenamevir 400 mg group, arithmetic mean ± SD), this compound had a tPTmax of 39.5 ± 14.6 h.
